Legend:
[1] = biological target: T1, Cholesteryl ester transfer protein (Homo sapiens, UniProt P11597); assay: Inhibition of CETP-mediated [3H]-CE from HDL to LDL in human plasma
T1 sequence (P11597 whole entry): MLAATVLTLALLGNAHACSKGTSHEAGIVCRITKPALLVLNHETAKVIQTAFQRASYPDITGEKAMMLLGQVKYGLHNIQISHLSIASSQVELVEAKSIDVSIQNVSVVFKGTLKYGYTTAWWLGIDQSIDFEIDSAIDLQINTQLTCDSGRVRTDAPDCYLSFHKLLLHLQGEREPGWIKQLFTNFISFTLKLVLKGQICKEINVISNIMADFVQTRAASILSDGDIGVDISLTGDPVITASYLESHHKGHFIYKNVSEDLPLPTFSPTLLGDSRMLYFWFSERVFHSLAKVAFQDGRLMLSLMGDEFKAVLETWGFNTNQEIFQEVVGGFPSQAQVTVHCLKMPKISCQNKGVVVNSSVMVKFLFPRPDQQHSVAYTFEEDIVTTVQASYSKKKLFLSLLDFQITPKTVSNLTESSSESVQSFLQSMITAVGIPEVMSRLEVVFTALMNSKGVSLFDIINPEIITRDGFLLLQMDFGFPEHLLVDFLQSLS

Mus musculus = assay: Ex vivo inhibition of human CETP overexpressed in po dosed double transgenic mouse harboring human apoA1 assessed as elevation of HDL-cholesterol level measured at 8 hrs post dose; type: functional

| IC50 [1] | SMILES | ED50 (Mus musculus) |
| --- | --- | --- |
| 600 nM | NCC(O)C(F)(F)F (configuration not stated) | – |
| – | Cc1cc(C)c2c(c1)[C@@H](N(Cc1cc(C(F)(F)F)cc(C(F)(F)F)c1)c1nnn(C)n1)CCCN2C[C@H]1CC[C@H](C(=O)O)CC1 [EVACETRAPIB] | < 5 mg/kg |

From ChEMBL document CHEMBL3351791, “Some molecular targets for antihyperlipidemic drug research” (Eur J Med Chem, 2014)
